The source made the active and inactive calls. The rule behind the calls is not given here.
Target: T1, Cannabinoid receptor 1 (Homo sapiens, UniProt P21554)
Experiment: Ability to displace [3H]-SR- 141716A binding to CB1 receptor expressed in CHO cell membrane
Assay type: cell membranes

T1 sequence (P21554 whole entry): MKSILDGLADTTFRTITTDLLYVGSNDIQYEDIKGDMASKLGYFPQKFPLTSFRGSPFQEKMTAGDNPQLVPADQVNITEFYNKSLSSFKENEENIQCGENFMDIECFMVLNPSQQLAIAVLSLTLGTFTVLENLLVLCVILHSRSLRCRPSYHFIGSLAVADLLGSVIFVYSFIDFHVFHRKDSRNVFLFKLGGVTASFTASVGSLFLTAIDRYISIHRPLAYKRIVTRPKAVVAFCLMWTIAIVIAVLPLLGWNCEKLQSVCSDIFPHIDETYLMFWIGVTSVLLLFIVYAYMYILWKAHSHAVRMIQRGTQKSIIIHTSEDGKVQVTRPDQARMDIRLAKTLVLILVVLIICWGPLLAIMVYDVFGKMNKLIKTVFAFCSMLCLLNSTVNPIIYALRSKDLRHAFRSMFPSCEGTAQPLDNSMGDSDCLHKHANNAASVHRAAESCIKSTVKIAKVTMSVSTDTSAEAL

Structure (SMILES)	Ki [nM]
CCCCCCCN1C(=O)NC(c2ccc(Br)cc2)(c2ccc(Br)cc2)C1=O	97.9
O=C1NC(c2ccc(Br)cc2)(c2ccc(Br)cc2)C(=O)N1CCN1CCOCC1	70.3
O=C1NC(c2ccc(Br)cc2)(c2ccc(Br)cc2)C(=O)N1CCCO	103

Target: T1, Cannabinoid receptor 1
Experiment: Binding affinity for brain CBI receptor was determined

Structure (SMILES)	Ki [nM]
CCCCCn1ccc(C(=O)c2cccc3ccccc23)c1	87

Target: T1, Cannabinoid receptor 1
Experiment: Displacement of [3H]-SR- 141716A binding to human CB1 receptor expressed in CHO cell membranes at the concentration of 1 uM

Structure (SMILES)	Displacement [%]
CCCCCCCN1C(=O)NC(c2ccc(Br)cc2)(c2ccc(Br)cc2)C1=O	51.5
O=C1NC(c2ccc(Br)cc2)(c2ccc(Br)cc2)C(=O)N1CCN1CCOCC1	54.1
O=C1NC(c2ccc(Br)cc2)(c2ccc(Br)cc2)C(=O)N1CCCO	50.2
CCCCCCN1C(=O)NC(c2ccc(OC)cc2)(c2ccc(OC)cc2)C1=O	23
CCCCCCCCN1C(=O)NC(c2ccc(Br)cc2)(c2ccc(Br)cc2)C1=O	48.2
CCCCCCCCN1C(=O)NC(c2ccc(F)cc2)(c2ccc(F)cc2)C1=O	15.3
CCCCCCN1C(=O)NC(c2ccc(Br)cc2)(c2ccc(Br)cc2)C1=O	30.2

Target: T1, Cannabinoid receptor 1
Experiment: Displacement of [3H]-SR- 141716A binding to human CB1 receptor expressed in CHO cell membranes at the concentration of 10 uM

Structure (SMILES)	Displacement [%]
CCCCCN1C(=O)NC(c2ccccc2)(c2ccccc2)C1=O	35.4
CN(C)CCN1C(=O)NC(c2ccccc2)(c2ccccc2)C1=O	< 5
CCCCCCCCN1C(=O)NC(c2ccccc2)(c2ccccc2)C1=O	61.2
CCCCCCCN1C(=O)NC(c2ccc(Br)cc2)(c2ccc(Br)cc2)C1=O	89.2
Cc1ccc(C2(c3ccc(C)cc3)NC(=O)N(CCN3CCOCC3)C2=O)cc1	23.9
COc1ccc(C2(c3ccc(OC)cc3)NC(=O)N(CCN3CCOCC3)C2=O)cc1	21.7
O=C1NC(c2ccc(Br)cc2)(c2ccc(Br)cc2)C(=O)N1CCN1CCOCC1	91.2
O=C1NC(c2ccccc2)(c2ccccc2)C(=O)N1CCN1CCOCC1	< 5
CCCCCCCN1C(=O)NC(c2ccc(F)cc2)(c2ccc(F)cc2)C1=O	51.4
CCCN1C(=O)NC(c2ccccc2)(c2ccccc2)C1=O	< 20
CCCCCCN1C(=O)NC(c2ccc(F)cc2)(c2ccc(F)cc2)C1=O	40.6
O=C1NC(c2ccccc2)(c2ccccc2)C(=O)N1CCN1CCCCC1	< 15
O=C1NC(c2ccccc2)(c2ccccc2)C(=O)N1C1CC1	< 5
O=C1NC(c2ccc(Br)cc2)(c2ccc(Br)cc2)C(=O)N1CCCO	88.4
CCCCCCN1C(=O)NC(c2ccc(C)cc2)(c2ccc(C)cc2)C1=O	46.8
CCCCCCCN1C(=O)NC(c2ccc(C)cc2)(c2ccc(C)cc2)C1=O	51.3
O=C1NC(c2ccccc2)(c2ccccc2)C(=O)N1Cc1ccccc1	40.6
O=C1NC(c2ccc(F)cc2)(c2ccc(F)cc2)C(=O)N1CCN1CCOCC1	30.3
CCCCCCN1C(=O)NC(c2ccc(OC)cc2)(c2ccc(OC)cc2)C1=O	66.6
CCCCCCCCN1C(=O)NC(c2ccc(Br)cc2)(c2ccc(Br)cc2)C1=O	80
CCCCN1C(=O)NC(c2ccccc2)(c2ccccc2)C1=O	25.1
CCCCCCCCN1C(=O)NC(c2ccc(F)cc2)(c2ccc(F)cc2)C1=O	62.5
CCCCCCN1C(=O)NC(c2ccccc2)(c2ccccc2)C1=O	35.6
CCCCCCN1C(=O)NC(c2ccc(Br)cc2)(c2ccc(Br)cc2)C1=O	72.1

Target: T1, Cannabinoid receptor 1
Experiment: Displacement of [3H]-SR- 141716A binding to human CB1 receptor expressed in CHO cell membranes at the concentration of 10 uM; Not significant

Structure (SMILES)	Displacement
Cc1ccc(C2(c3ccc(C)cc3)NC(=O)NC2=O)cc1	inactive
COc1ccc(C2(c3ccc(OC)cc3)NC(=O)NC2=O)cc1	inactive
O=C1NC(=O)C(c2ccc(F)cc2)(c2ccc(F)cc2)N1	inactive
O=C1NC(=O)C(c2ccc(Br)cc2)(c2ccc(Br)cc2)N1	inactive
O=C1NC(=O)C(c2ccccc2)(c2ccccc2)N1	inactive

Target: T1, Cannabinoid receptor 1
Experiment: biochemical
Assay type: cell-based, CHO

Structure (SMILES)	Ki [nM]
CCCCCCC(C)(C)c1cc(O)c2c(c1)OC(C)(C)[C@@H]1CCC(CO)C[C@@H]21 (stereo partly specified)	0.82
